{"source": "paper PMC3025356", "about": "“Mechanism of the Ca^2+-Dependent Interaction between S100A4 and Tail Fragments of Nonmuscle Myosin Heavy Chain IIA” (Journal of Molecular Biology, 2011)", "key": {"[1]": {"test_system": "M111", "assay": "NMR ^1H,^15N HSQC of labelled M111 on addition of full-length S100A4", "type": "binding, human", "conditions": "1.5 molar excess of full-length S100A4", "experimental": "Fig. 7 Chemical shift changes in the ^1H,^15N HSQC spectra of ^13C,^15N-labelled M111 on addition of full-length S100A4. Superposition of the spectra in free form (black) and in the presence of a 1.5 molar excess of S100A4 (red). Resonance assignments derived from the analysis of triple-resonance spectra are marked. In addition to sharp intense cross-peaks, the spectra contain broad low-intensity peaks that cannot be assigned due to low sensitivity.\nAll NMR samples were prepared in 20 mM 4-morpholineethanesulfonic acid, 20 mM NaCl, 5 mM CaCl2, and 5% D2O buffer (pH 6.1). DTT (2 mM) was added to the samples containing S100A4. Titration experiments were carried out at 0.2 mM S100A4 using 10 mM peptide solutions. Spectra for M111 backbone resonance assignments were measured using 0.4 mM protein solution. NMR spectra were obtained at 298 K using Bruker AVANCE DRX 600 or AVANCE DRX 800 spectrometers, which are both equipped with cryoprobes. Proton chemical shifts were referenced to external 2,2-dimethyl-2-silapentane-5-sulfonate. The ^15N and ^13C chemical shifts were referenced indirectly using recommended gyromagnetic ratios.[44] Spectra were processed with TopSpin (Bruker) and analysed using Analysis.[45] Three-dimensional HNCO, HN(CA)CO, HNCA, HN(CO)CA, HNCACB, and HN(CO)CACB experiments were used for the sequential assignment of the backbone NH, N, CO, C^α, and C^β resonances."}, "[2]": {"test_system": "M200 filaments", "type": "biochemical, human", "experimental": "Fig. 9 Dissociation of M200 filaments by S100A4. (a) Initially, M200 was added (i) from a concentrated stock in 0.5 M NaCl to give a final concentration of 5 μM M200 (with respect to the polypeptide chain) in 100 mM NaCl, 10 mM Hepes, and 0.1 mM Ca^2+ at pH 7.5 and 20 °C. A biphasic rise in turbidity was recorded for 200 s (continuous line). Then 10 μM S100A4 (with respect to monomer concentration) was added (ii), followed by 0.2 mM EGTA (iii) and 1 mM Ca^2+ (iv). […] (b) M200 was diluted (i) into 100 mM NaCl to form filaments as in (a), then 5 μM S100A4 was added (ii), causing a 54% drop in turbidity. A further 5 μM S100A4 (iii) caused turbidity to fall to almost zero. (c) Stopped-flow records monitoring the dissociation of 5 μM M200 filaments on jumping [NaCl] from 100 mM to 120 mM NaCl. Other components of the buffer were 20 mM Hepes, 1 mM Mg^2+, and 100 μM Ca^2+ at pH 7.5 and 20 °C. […] In the presence of 20 μM S100A4 (lower trace), the turbidity decreased by 87% with a rate constant of 0.2 s^− 1.\nAbsorption spectra were recorded using a Cary 50 spectrophotometer (Varian Ltd., Walton on Thames, UK). Protein concentrations were calculated from their absorbance at 280 nm, using molar coefficients of 2980 M^− 1 cm^− 1 (M200 and S100A4) and 1490 M^− 1 cm^− 1 (M111), based on their tyrosine content (two residues per chain and one residue per chain, respectively). Myosin fragments were measured in 0.5 M NaCl buffer, and care was taken to correct for the small contribution from turbidity. Protein concentrations are stated in terms of their monomeric polypeptide chain concentration. Under the conditions used for kinetic analysis, S100A4 is predominantly a dimer,[21,25] and M200 and M111 form stable coiled coils; therefore, the molar protein concentrations are half those given in all three cases. Fluorescence emission spectra were also checked, and those preparations containing a detectable shoulder at 340 nm due to contaminating tryptophan-containing proteins were subjected to further purification. F-M16^N concentrations were based on fluorescein absorbance (ɛ490 = 78,000 M^− 1 cm^− 1). […] Quin-2 concentrations were calculated from ɛ354 = 5000 M^− 1 cm^− 1 in the absence of Ca^2+.[39] Turbidity assays used to monitor M200 filament formation and solubilisation with manual mixing were carried out using a 10-mm pathlength and a 0.1-ml microcuvette (105.250-QS; Hellma, Southend on Sea, UK) at a wavelength of 300 nm. For determination of the free Ca^2+ concentration, Fura-2 fluorescence excitation spectra were measured in the same cuvette using the 2-mm path for excitation to minimise inner filter effects."}}}
{"substance": "S100A4: recombinant S100A4 expressed in E. coli BL21(DE3)", "values": [{"measurement": "resonance broadening in M111 on S100A4 addition", "setting": "[1]", "value": "additional broadening of resonances in the 1926–1939 region"}, {"measurement": "S100A4 monomer excess per M200 chain required for full solubilisation", "setting": "[2]", "value": "2 -fold molar excess"}, {"measurement": "drop in turbidity", "setting": "[2]; 5 μM S100A4, M200 filaments, 100 mM NaCl", "value": 54, "unit": "%"}, {"measurement": "effect of excess EGTA on solubilisation", "setting": "[2]; excess EGTA", "value": "reversed the process, allowing M200 filaments to reform"}, {"measurement": "turbidity after further S100A4", "setting": "[2]; further 5 μM S100A4 (10 μM total)", "value": "almost zero"}, {"measurement": "S100A4 monomer required to solubilise 1 mol of M200", "setting": "[2]; per M200 polypeptide chain", "value": "2 mol of S100A4 monomer"}]}
